The values below are quoted from earlier work in patent US20250234859A1, “AQUEOUS SUSPENSION AGROCHEMICAL COMPOSITION, DISEASE CONTROL METHOD, AND USEFUL PLANT SEEDS” (KUMIAI CHEMICAL INDUSTRY CO., LTD., priority 2021, published 2025).

This series has as its system rice blast, glume blotch, cucumber downy mildew, and cucumber anthracnose. The note with it: diseases such as rice blast, Patent Document 3.

On to `O=S1(=O)N=C(OCc2snc(Cl)c2Cl)c2ccccc21` [dichlobentiazox, 3-(3,4-dichloroisothiazol-5-ylmethoxy)-1,2-benzothiazole-1,1-dioxide], for which the “effect on plant diseases” value is “remarkable effect”.
